Usually IC50 stands for the concentration that gives 50% inhibition.

Chain of SUV420H1 enzyme (Q4FZB7 whole entry): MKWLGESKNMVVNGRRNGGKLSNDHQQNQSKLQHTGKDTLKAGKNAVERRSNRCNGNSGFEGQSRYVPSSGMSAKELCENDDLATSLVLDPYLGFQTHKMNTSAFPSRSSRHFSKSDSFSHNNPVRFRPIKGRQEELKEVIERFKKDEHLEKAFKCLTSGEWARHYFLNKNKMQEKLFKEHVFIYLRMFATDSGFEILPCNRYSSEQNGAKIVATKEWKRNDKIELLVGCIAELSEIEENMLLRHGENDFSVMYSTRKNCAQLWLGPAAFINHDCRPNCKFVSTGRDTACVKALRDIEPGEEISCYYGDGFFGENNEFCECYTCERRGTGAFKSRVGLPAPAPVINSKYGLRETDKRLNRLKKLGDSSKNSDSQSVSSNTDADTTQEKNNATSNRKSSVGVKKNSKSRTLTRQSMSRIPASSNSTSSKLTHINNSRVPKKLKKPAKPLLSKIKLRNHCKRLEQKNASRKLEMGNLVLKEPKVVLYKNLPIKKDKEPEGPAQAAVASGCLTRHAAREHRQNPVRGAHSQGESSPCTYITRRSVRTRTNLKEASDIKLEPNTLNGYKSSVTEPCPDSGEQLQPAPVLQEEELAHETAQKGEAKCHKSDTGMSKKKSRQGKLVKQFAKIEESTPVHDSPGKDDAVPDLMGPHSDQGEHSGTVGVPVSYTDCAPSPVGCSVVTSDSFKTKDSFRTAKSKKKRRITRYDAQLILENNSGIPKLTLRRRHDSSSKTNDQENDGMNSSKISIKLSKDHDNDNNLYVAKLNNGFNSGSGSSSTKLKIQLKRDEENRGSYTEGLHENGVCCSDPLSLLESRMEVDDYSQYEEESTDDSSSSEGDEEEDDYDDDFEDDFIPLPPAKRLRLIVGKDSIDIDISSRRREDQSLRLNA

The test has as its target SUV420H1 enzyme (Homo sapiens, UniProt Q4FZB7). The test can be described thus: TR-FRET SAH SUV420H1 enzyme inhibition assay. It is filed as biochemical. Conditions: Histone Peptide H4(8-30)me1 and SAM, overnight at room temp, TR-FRET detection of SAH, read-out: TR-FRET SAH_SUV420H1 IC50. In short, it runs like this:
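SUV420H1 (90 nM) preincubated 30 min with compound (3-fold dilutions, 50 to 0.00075 μM), then H4(8-30)me1 peptide 5 nM and SAM 4 nM added, overnight at room temp. SAH product detected by TR-FRET with Tb anti-SAH antibody and Oregon Green-SAH in RIPA buffer, 4 h; IC50 from Hill fit, asymptotes fixed 0-100%.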
As to `Cn1cccc1C(=O)NCc1cc2cc(Cl)cc(Cn3cnc4c(N)ncnc43)c2[nH]1` [Example 160, N-({7-[(6-amino-9H-purin-9-yl)methyl]-5-chloro-1H-indol-2-yl}methyl)-1-methyl-1H-pyrrole-2-carboxamide], the IC50 worked out at 16800 nM.

As for `Cc1nnccc1C(=O)NCc1cc2cc(Cl)cc(Cn3cnc4c(N)ncnc43)c2[nH]1` [Example 199, N-({7-[(6-amino-9H-purin-9-yl)methyl]-5-chloro-1H-indol-2-yl}methyl)-3-methylpyridazine-4-carboxamide], the half-maximal inhibitory concentration (IC50) came out at 93.9 nM.

With `Cc1ccc(CNCc2cc3cc(Cl)cc(Cn4cnc5c(N)ncnc54)c3[nH]2)cc1` [Example 241, 9-[(5-chloro-2-{[(4-methylbenzyl)amino]methyl}-1H-indol-7-yl)methyl]-9H-purin-6-amine], the IC50 is 3630 nM.

Regarding `Cc1cc2cc(C(=O)NCc3cc4cc(Cl)cc(Cn5cnc6c(N)ncnc65)c4[nH]3)ccc2o1` [Example 364, N-({7-[(6-amino-9H-purin-9-yl)methyl]-5-chloro-1H-indol-2-yl}methyl)-2-methyl-1-benzofuran-5-carboxamide], the IC50 amounted to 3280 nM.

Regarding `Cc1noc(C)c1C(=O)NCc1cc2cc(-c3ccc(S(C)(=O)=O)cc3)cc(Cn3cnc4c(N)ncnc43)c2[nH]1` [Example 170, N-({7-[(6-amino-9H-purin-9-yl)methyl]-5-[4-(methylsulfonyl)phenyl]-1H-indol-2-yl}methyl)-3,5-dimethyl-1,2-oxazole-4-carboxamide], the half-inhibitory concentration (IC50) worked out at 208 nM.

On to `Cc1ccccc1CC(=O)NCc1cc2cc(Cl)cc(Cn3cnc4c(N)ncnc43)c2[nH]1` [Example 294, N-({7-[(6-amino-9H-purin-9-yl)methyl]-5-chloro-1H-indol-2-yl}methyl)-2-(2-methylphenyl)acetamide], for which the IC50 is more than 50000 nM.

In the case of `Nc1ncnc2c1ncn2Cc1cc(Cl)cc2cc(CNC(=O)CC3CCCCC3)[nH]c12` [Example 133, N-({7-[(6-amino-9H-purin-9-yl)methyl]-5-chloro-1H-indol-2-yl}methyl)-2-cyclohexylacetamide], the IC50 was determined as 31900 nM.

`COC(=O)c1ccc(-c2cc(Cn3cnc4c(N)ncnc43)c3[nH]c(CN)cc3c2)cc1` [Example 44, methyl 4-{2-(aminomethyl)-7-[(6-amino-9H-purin-9-yl)methyl]-1H-indol-5-yl}benzoate]: the IC50 is 560 nM.

For the molecule `COc1ccc(CC(=O)NCc2cc3cc(Cl)cc(Cn4cnc5c(N)ncnc54)c3[nH]2)cc1` [Example 297, N-({7-[(6-amino-9H-purin-9-yl)methyl]-5-chloro-1H-indol-2-yl}methyl)-2-(4-methoxyphenyl)acetamide], the IC50 was found to be 6040 nM.

Turning to `CC(=O)N1CC=C(c2cc(Cn3cnc4c(N)ncnc43)c3[nH]c(CNC(=O)c4ccc(C#N)cc4F)cc3c2)CC1` [Example 288, N-({5-(1-acetyl-1,2,3,6-tetrahydropyridin-4-yl)-7-[(6-amino-9H-purin-9-yl)methyl]-1H-indol-2-yl}methyl)-4-cyano-2-fluorobenzamide], the IC50 is 43.1 nM.

Regarding `Nc1ncnc2c1ncn2Cc1cc(Cl)cc2cc(CNC(=O)c3c(F)cccc3F)[nH]c12` [Example 228, N-({7-[(6-amino-9H-purin-9-yl)methyl]-5-chloro-1H-indol-2-yl}methyl)-2,6-difluorobenzamide], the IC50 is 2420 nM.

As for `Nc1ncnc2c1ncn2Cc1cc(Cl)cc2cc(CNC(=O)CN3CCCC3)[nH]c12` [Example 120, N-({7-[(6-amino-9H-purin-9-yl)methyl]-5-chloro-1H-indol-2-yl}methyl)-2-(pyrrolidin-1-yl)acetamide], the IC50 came to 1490 nM.

With `CC(=O)Nc1ccc(C(=O)NCc2cc3cc(Cl)cc(Cn4cnc5c(N)ncnc54)c3[nH]2)cc1` [Example 313, 4-(acetylamino)-N-({7-[(6-amino-9H-purin-9-yl)methyl]-5-chloro-1H-indol-2-yl}methyl)benzamide], the concentration for half-maximal inhibition (IC50) is more than 50000 nM.

For `COc1ccc(-c2cc(Cn3cnc4c(N)ncnc43)c3[nH]c(CN)cc3c2)cn1` [Example 28, 9-{[2-(aminomethyl)-5-(6-methoxypyridin-3-yl)-1H-indol-7-yl]methyl}-9H-purin-6-amine], the 50% inhibitory concentration (IC50) was determined as 426 nM.

Take `NCc1cc2ccc(Cl)c(Cn3cnc4c(N)ncnc43)c2[nH]1` [Example 58, 9-{[2-(aminomethyl)-6-chloro-1H-indol-7-yl]methyl}-9H-purin-6-amine]: the concentration for half-maximal inhibition (IC50) worked out at 7880 nM.

As for `Nc1ncnc2c1ncn2Cc1cc(Cl)cc2cc(CNCc3ccccc3F)[nH]c12` [Example 214, 9-[(5-chloro-2-{[(2-fluorobenzyl)amino]methyl}-1H-indol-7-yl)methyl]-9H-purin-6-amine], the IC50 came out at 2840 nM.

For `Nc1ncnc2c1ncn2Cc1cc(Cl)cc2cc(CNC(=O)[C@@H]3CCC(=O)N3)[nH]c12` [Example 117, (2S)—N-({7-[(6-amino-9H-purin-9-yl)methyl]-5-chloro-1H-indol-2-yl}methyl)-5-oxopyrrolidine-2-carboxamide], the concentration for half-maximal inhibition (IC50) stood at 14100 nM.

For the molecule `Nc1ncnc2c1ncn2Cc1cc(Cl)cc2cc(CNCc3cccc(Cl)c3)[nH]c12` [Example 209, 9-[(5-chloro-2-{[(3-chlorobenzyl)amino]methyl}-1H-indol-7-yl)methyl]-9H-purin-6-amine], the IC50 turned out to be 1920 nM.

As for `CN(C)C(=O)c1ccc(-c2cc(Cn3cnc4c(N)ncnc43)c3[nH]c(CN)cc3c2)cc1` [Example 47, 4-{2-(aminomethyl)-7-[(6-amino-9H-purin-9-yl)methyl]-1H-indol-5-yl}-N,N-dimethylbenzamide], the IC50 turned out to be 354 nM.

As to `Nc1ncnc2c1ncn2Cc1cc(Cl)cc2cc(CNC(=O)Cc3ccc(F)cc3)[nH]c12` [Example 254, N-({7-[(6-amino-9H-purin-9-yl)methyl]-5-chloro-1H-indol-2-yl}methyl)-2-(4-fluorophenyl)acetamide], the half-inhibitory concentration (IC50) was more than 50000 nM.

With `Cc1cc(C(=O)NCc2cc3cc(Cl)cc(Cn4cnc5c(N)ncnc54)c3[nH]2)nn1C` [Example 182, N-({7-[(6-amino-9H-purin-9-yl)methyl]-5-chloro-1H-indol-2-yl}methyl)-1,5-dimethyl-1H-pyrazole-3-carboxamide], the half-maximal inhibitory concentration (IC50) was found to be 5200 nM.

Take `CC(C)(C)OC(=O)N1CCC[C@H]1C(=O)NCc1cc2cc(Cl)cc(Cn3cnc4c(N)ncnc43)c2[nH]1` [Example 123, tert-butyl (2S)-2-[({7-[(6-amino-9H-purin-9-yl)methyl]-5-chloro-1H-indol-2-yl}methyl)carbamoyl]pyrrolidine-1-carboxylate]: the IC50 is 44900 nM.

Regarding `COc1cccc(CNCc2cc3cc(Cl)cc(Cn4cnc5c(N)ncnc54)c3[nH]2)c1` [Example 249, 9-[(5-chloro-2-{[(3-methoxybenzyl)amino]methyl}-1H-indol-7-yl)methyl]-9H-purin-6-amine], the IC50 came to 3310 nM.

For `Cc1noc(C2CC2)c1C(=O)NCc1cc2cc(Cl)cc(Cn3cnc4c(N)ncnc43)c2[nH]1` [Example 190, N-({7-[(6-amino-9H-purin-9-yl)methyl]-5-chloro-1H-indol-2-yl}methyl)-5-cyclopropyl-3-methyl-1,2-oxazole-4-carboxamide], the 50% inhibitory concentration (IC50) amounted to 910 nM.

Consider `N#Cc1ccc(C(=O)NCc2cc3cc(C4=CCC(F)(F)CC4)cc(Cn4cnc5c(N)ncnc54)c3[nH]2)c(F)c1` [Example 287, N-({7-[(6-amino-9H-purin-9-yl)methyl]-5-(4,4-difluorocyclohex-1-en-1-yl)-1H-indol-2-yl}methyl)-4-cyano-2-fluorobenzamide], for which the IC50 turned out to be 87.8 nM.

As to `NCc1cc2ccc(-c3ccccc3)c(Cn3cnc4c(N)ncnc43)c2[nH]1` [Example 61, 9-{[2-(aminomethyl)-6-phenyl-1H-indol-7-yl]methyl}-9H-purin-6-amine], the IC50 was determined as 20300 nM.

Consider `Cc1ccc(N)cc1C(=O)NCc1cc2cc(Cl)cc(Cn3cnc4c(N)ncnc43)c2[nH]1` [Example 271, 5-amino-N-({7-[(6-amino-9H-purin-9-yl)methyl]-5-chloro-1H-indol-2-yl}methyl)-2-methylbenzamide], for which the half-maximal inhibitory concentration (IC50) came out at 2980 nM.

Take `NCc1cc2c(C3=CCCC3)ccc(Cn3cnc4c(N)ncnc43)c2[nH]1` [Example 67, 9-{[2-(aminomethyl)-4-(cyclopent-1-en-1-yl)-1H-indol-7-yl]methyl}-9H-purin-6-amine]: the half-inhibitory concentration (IC50) was 200 nM.

As to `Nc1ncnc2c1ncn2Cc1cc(Cl)cc2cc(CNC(=O)c3ccccc3C(=O)N3CCCCC3)[nH]c12` [Example 324, N-({7-[(6-amino-9H-purin-9-yl)methyl]-5-chloro-1H-indol-2-yl}methyl)-2-(piperidin-1-ylcarbonyl)benzamide], the IC50 is 12500 nM.

Turning to `Nc1ncnc2c1ncn2Cc1cc(Cl)cc2cc(CNCc3cccc(CN4CCCCC4)c3)[nH]c12` [Example 323, 9-{[5-chloro-2-({[3-(piperidin-1-ylmethyl)benzyl]amino}methyl)-1H-indol-7-yl]methyl}-9H-purin-6-amine], the IC50 was determined as 345 nM.

For `NCc1cc2cc(C3=CCCC3)cc(Cn3cnc4c(N)ncnc43)c2[nH]1` [Example 11, 9-{[2-(aminomethyl)-5-(cyclopent-1-en-1-yl)-1H-indol-7-yl]methyl}-9H-purin-6-amine], the IC50 amounted to 178 nM.

Take `Nc1ncnc2c1ncn2Cc1cc(Cl)cc2cc(CNC(=O)c3cnc4[nH]ccc4c3)[nH]c12` [Example 347, N-({7-[(6-amino-9H-purin-9-yl)methyl]-5-chloro-1H-indol-2-yl}methyl)-1H-pyrrolo[2,3-b]pyridine-5-carboxamide]: the concentration for half-maximal inhibition (IC50) worked out at 29100 nM.

With `Cc1cnc(C(=O)NCc2cc3cc(Cl)cc(Cn4cnc5c(N)ncnc54)c3[nH]2)cn1` [Example 205, N-({7-[(6-amino-9H-purin-9-yl)methyl]-5-chloro-1H-indol-2-yl}methyl)-5-methylpyrazine-2-carboxamide], the IC50 was found to be 3430 nM.

(Values after US9932340B2, “Substituted indoles” (AbbVie Inc., priority 2014, dated 2018).)
